Experimental data reported in patent US6171809A, “Method and compositions for detecting luciferase biological samples” (priority 1998, dated 2001).
Where no end group is shown, it is not given here.

Tests used:
[1] = molecular target: T1, human beta-2 adrenoceptor (Homo sapiens, UniProt P07550); assay: Compound screening, renilla luciferase readout, CRE/firefly/V2 and CRE/ren/beta2 cells, beta2-adrenoceptor, Example 3; type: cell-based
T1 construct: expressed in transfected cells; host or cells: CHO (Chinese hamster ovary) cells stably carrying a CRE-renilla luciferase reporter
T1 sequence (P07550 whole entry): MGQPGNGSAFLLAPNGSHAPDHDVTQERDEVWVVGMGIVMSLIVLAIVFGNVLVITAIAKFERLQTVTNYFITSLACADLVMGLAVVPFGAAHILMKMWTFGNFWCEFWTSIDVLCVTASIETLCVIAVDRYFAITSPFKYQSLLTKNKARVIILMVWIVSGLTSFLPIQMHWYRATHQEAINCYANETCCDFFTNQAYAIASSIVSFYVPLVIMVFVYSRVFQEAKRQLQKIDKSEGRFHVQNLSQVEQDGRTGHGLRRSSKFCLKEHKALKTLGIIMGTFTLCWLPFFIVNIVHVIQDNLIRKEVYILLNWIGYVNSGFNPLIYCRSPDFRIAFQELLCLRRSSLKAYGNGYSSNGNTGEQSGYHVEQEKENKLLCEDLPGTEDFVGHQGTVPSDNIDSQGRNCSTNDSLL
Method: (§1) Stable mammalian cell lines transfected with c-AMP responsive reporter genes containing either the firefly or renilla luciferase reporter proteins (CRE-firefly and CRE-ren) were generated.
(§2) These receptors are members of the super family of G-protein coupled receptors which interact with the stimulatory G-protein alpha unit.
Firefly luciferase and/or renilla luciferase producing CHO (Chinese hamster ovary) cells are cultured in tissue culture flasks and grown to 90% confluency. Twenty-four hours before the assay, the cells are quiesced in serum-free medium containing 1 mg/ml BSA (bovine serum albumin). Immediately prior to the assay, cells are removed with HBSS/EDTA (Hanks balanced salt solution containing EDTA), centrifuged and resuspended in 10 ml phenol red-free and serum-free medium supplemented with 1 mg/ml BSA. Next, the cells are plated into a 96 well microtiter plate at 90 μl/well and returned to the incubator. After 1 hour, 10 μl of the test compound, made up in either water or phenol red-free medium, is added. The microplates then are further incubated for 4 hours. Finally, the firefly luciferase detection reagent is made up and 100 μl of this detection solution is added to each well. After 10 minutes, the microplate is counted for firefly luciferase activity. […] The plate is left for 15 minutes in the dark and then counted for renilla luciferase activity. […]

adenylcyclase [2] = assay: Forskolin dose response, renilla luciferase reporter (CRE-ren CHO cells mixed with CRE-firefly cells), Example 1; type: cell-based, Chinese hamster ovary
Method: A kit for the sequential detection of firefly luciferase and renilla luciferase was prepared which consisted of a firefly luciferase assay reagent and a renilla luciferase assay reagent. The renilla luciferase reagent consisted of 5 μM of coelenterazine in 2 mM EDTA buffer with a pH 7.5. Stable mammalian cell lines transfected with c-AMP responsive reporter genes containing either the firefly or renilla luciferase reporter proteins (CRE-firefly and CRE-ren) were generated. Firefly luciferase and/or renilla luciferase producing CHO (Chinese hamster ovary) cells are cultured in tissue culture flasks and grown to 90% confluency. Twenty-four hours before the assay, the cells are quiesced in serum-free medium containing 1 mg/ml BSA (bovine serum albumin). Immediately prior to the assay, cells are removed with HBSS/EDTA (Hanks balanced salt solution containing EDTA), centrifuged and resuspended in 10 ml phenol red-free and serum-free medium supplemented with 1 mg/ml BSA. Next, the cells are plated into a 96 well microtiter plate at 90 μl/well and returned to the incubator. After 1 hour, 10 μl of the test compound, made up in either water or phenol red-free medium, is added. The microplates then are further incubated for 4 hours. Finally, the firefly luciferase detection reagent is made up and 100 μl of this detection solution is added to each well. After 10 minutes, the microplate is counted for firefly luciferase activity. Next, to each well, 100 μl/well of 5 μM of coelenterazine in 2 mM EDTA buffer solution is added. The plate is left for 15 minutes in the dark and then counted for renilla luciferase activity. CRE-ren cells were stimulated with 10 μM forskolin, a compound which directly activates adenylcyclase to cause an increase in the level of […] cAMP. […] The assay plates were counted in a TopCount™ Luminescence Counter (Packard Instrument Company) at 15 or 160 minutes after reagent addition. […] Furthermore, renilla luminescence generated using the composition of this invention, is 10-fold brighter than the firefly luciferase generated light signal.

adenylcyclase [3] = assay: Forskolin dose response, firefly luciferase reporter (CRE-firefly CHO cells mixed with CRE-ren cells), Example 1; type: cell-based, Chinese hamster ovary; details: 15 and 160 minutes after reagent addition; FIG. 1
Method: A kit for the sequential detection of firefly luciferase and renilla luciferase was prepared which consisted of a firefly luciferase assay reagent and a renilla luciferase assay reagent. The firefly luciferase reagent consisted of AMP, EDTA, firefly luciferin, ATP, DTT, phenylacetic acid and oxalic acid as originally described in U.S. Pat. No. 5,618,682. Stable mammalian cell lines transfected with c-AMP responsive reporter genes containing either the firefly or renilla luciferase reporter proteins (CRE-firefly and CRE-ren) were generated. Firefly luciferase and/or renilla luciferase producing CHO (Chinese hamster ovary) cells are cultured in tissue culture flasks and grown to 90% confluency. Twenty-four hours before the assay, the cells are quiesced in serum-free medium containing 1 mg/ml BSA (bovine serum albumin). […] After 10 minutes, the microplate is counted for firefly luciferase activity. […] The plate is left for 15 minutes in the dark and then counted for renilla luciferase activity. […] The assay plates were counted in a TopCount™ Luminescence Counter (Packard Instrument Company) at 15 or 160 minutes after reagent addition. […] Furthermore, renilla luminescence generated using the composition of this invention, is 10-fold brighter than the firefly luciferase generated light signal.

CHO cells = assay: Compound screening, endogenous response of CHO cells (CRE/firefly/V2 and CRE/ren/beta2), Example 3; type: cell-based, Chinese hamster ovary; details: for firefly luciferase response (endogenous): firefly luciferase detection reagent; for agonist activity at these cells: CRE/firefly/V2 and CRE/ren/beta2 cells
Method: as §1, §2
Firefly luciferase and/or renilla luciferase producing CHO (Chinese hamster ovary) cells are cultured in tissue culture flasks and grown to 90% confluency. Twenty-four hours before the assay, the cells are quiesced in serum-free medium containing 1 mg/ml BSA (bovine serum albumin). Immediately prior to the assay, cells are removed with HBSS/EDTA (Hanks balanced salt solution containing EDTA), centrifuged and resuspended in 10 ml phenol red-free and serum-free medium supplemented with 1 mg/ml BSA. Next, the cells are plated into a 96 well microtiter plate at 90 μl/well and returned to the incubator. After 1 hour, 10 μl of the test compound, made up in either water or phenol red-free medium, is added. The microplates then are further incubated for 4 hours. Finally, the firefly luciferase detection reagent is made up and 100 μl of this detection solution is added to each well. After 10 minutes, the microplate is counted for firefly luciferase activity. Next, to each well, 100 μl/well of 5 μM of coelenterazine in 2 mM EDTA buffer solution is added. The plate is left for 15 minutes in the dark and then counted for renilla luciferase activity.
CRE/firefly/V2 and CRE/ren/beta2 cells were mixed and plated into individual wells of a black 96-well ViewPlate and a range of compounds were applied to the cells.

[4] = molecular target: T1, human beta-2 adrenoceptor; assay: beta2-adrenoceptor dose response, renilla luciferase readout after renilla detection reagent (CRE/ren/beta2 cells mixed with CRE/firefly/V2 cells), Example 2; type: cell-based
Method: as §1, §2
Firefly luciferase and/or renilla luciferase producing CHO (Chinese hamster ovary) cells are cultured in tissue culture flasks and grown to 90% confluency. Twenty-four hours before the assay, the cells are quiesced in serum-free medium containing 1 mg/ml BSA (bovine serum albumin). Immediately prior to the assay, cells are removed with HBSS/EDTA (Hanks balanced salt solution containing EDTA), centrifuged and resuspended in 10 ml phenol red-free and serum-free medium supplemented with 1 mg/ml BSA. Next, the cells are plated into a 96 well microtiter plate at 90 μl/well and returned to the incubator. After 1 hour, 10 μl of the test compound, made up in either water or phenol red-free medium, is added. The microplates then are further incubated for 4 hours. Finally, the firefly luciferase detection reagent is made up and 100 μl of this detection solution is added to each well. After 10 minutes, the microplate is counted for firefly luciferase activity. […] The plate is left for 15 minutes in the dark and then counted for renilla luciferase activity.

Molecule	luminescence signal following addition of renilla luciferase detection reagent [1]	action on CHO cells (conclusion) (CHO cells)	firefly luciferase response (endogenous) (CHO cells)	luminescent signal following addition of renilla luciferase detection reagent (endogenous) (CHO cells)	agonist activity at these cells (CHO cells)	also measured
NC(=O)CC[C@@H]1NC(=O)[C@H](Cc2ccccc2)NC(=O)[C@H](Cc2ccc(O)cc2)NC(=O)CCSSC[C@@H](C(=O)N2CCC[C@H]2C(=O)N[C@H](CCCN=C(N)N)C(=O)NCC(N)=O)NC(=O)[C@H](CC(N)=O)NC1=O [desmopressin]	not significantly above basal					
C=C[C@@]1(C)CC(=O)[C@]2(O)[C@@]3(C)[C@@H](O)CCC(C)(C)[C@@H]3[C@H](O)[C@H](OC(C)=O)[C@@]2(C)O1 [forskolin]		act on CHO cells to generate an endogenous response	a firefly luciferase response was obtained	A luminescent signal was maintained		renilla luciferase luminometric response (adenylcyclase [2]; 15 minutes after reagent addition): 3.5×10^6; renilla luciferase luminometric response (adenylcyclase [2]; 160 minutes after reagent addition): 1.8×10^6; EC50 for forskolin stimulation of adenyl cyclase (adenylcyclase [2]; renilla response, 15 versus 160 minutes): remains similar; nature of the firefly luminescence (adenylcyclase [3]): identical at 15 and 160 minutes after reagent addition
CC(C)C[C@H](NC(=O)[C@H](CCCCN)NC(=O)[C@H](CCCN=C(N)N)NC(=O)[C@H](C)NC(=O)[C@H](CO)NC(=O)[C@H](CCCCN)NC(=O)[C@H](CCCN=C(N)N)NC(=O)[C@H](C)NC(=O)CNC(=O)[C@@H](NC(=O)[C@H](Cc1ccccc1)NC(=O)CNC(=O)CNC(=O)[C@@H](N)Cc1ccccc1)[C@@H](C)O)C(=O)N[C@@H](C)C(=O)N[C@@H](CC(N)=O)C(=O)N[C@@H](CCC(N)=O)C(=O)O [nociceptin]					not agonists active at these cells	
NCCc1c[nH]c2ccc(O)cc12 [serotonin]					not agonists active at these cells	
NC(=O)CC[C@@H]1NC(=O)[C@H](Cc2ccccc2)NC(=O)[C@H](Cc2ccc(O)cc2)NC(=O)[C@@H](N)CSSC[C@@H](C(=O)N2CCC[C@H]2C(=O)N[C@@H](CCCN=C(N)N)C(=O)NCC(N)=O)NC(=O)[C@H](CC(N)=O)NC1=O [vasopressin]	not significantly above basal					stimulation of renilla luminescence ([4]; FIG. 2): did not stimulate renilla luminescence; response curve after subsequent addition of renilla detection reagent ([4]; renilla detection reagent added to the same cells): flattened
thyro-calcitonin (CGNLSTCMLGTYTQDFNKFHTFPQTAIGVGAP; ends and bridges not checked; cysteine pairing not given here; UniProt P01258 85-116, looked up) [CHO cells express an endogenous calcitonin receptor]		act on CHO cells to generate an endogenous response	a firefly luciferase response was obtained	A luminescent signal was maintained		
